Results as given in patent US20260174778A1, “SULFONAMIDE COMPOUND, AND PREPARATION METHOD THEREFOR AND USE THEREOF” (SHANGHAI HENLIUS BIOTECH, INC., priority 2023, published 2026).

These molecules were tested on breast cancer cell line ZR-75-1 (assay: Inhibition of proliferation of breast cancer cell line ZR-75-1 (CellTiter-Glo)). Details: Homo sapiens, 240 h, proliferation of ZR-75-1 cells, 10 days of incubation, read-out: IC50 (KAT6A).
Type: cell-based
Description: Test Example 1: Experiment for Determining Inhibitory Effects of Compounds on Proliferation of Breast Cancer Cell Line ZR-75-1
ATP is an indicator of the metabolism of living cells. The CellTiter-Glo® Luminescent Cell Viability Assay is a homogeneous assay method for determining the number of viable cells by quantifying ATP.
• 1) ZR-75-1 (Cell Bank of Chinese Academy of Sciences, TCHul26) • 2) RPMI-1640 medium (Gibco, 11875-093) • 3) Fetal Bovine Serum, New Zealand (Gibco,10091-148) • 4) Penicillin-streptomycin (10,000 U/mL) (Gibco, 15140-122) • 5) Trypsin-EDTA (0.25%), containing phenol red (Gibco, 25200-072) • 6) DPBS (Shanghai BasalMedia, B210KJ) • 7) Corning® 96-well Clear Flat Bottom Ultra-Low Attachment Microplate (Corning, Cat. No. 3474) • 8) 330 μL 96 Holes Deep Well Plate, transparents, 96 Round Holes, V-shaped Bottom, Low Retention (Stellar Scientific, DP33VR-9-NS) • 9) Corning® 96-well solid white flat-bottom polystyrene microplate (Corning, Cat. No. 3917) • 10) CellTiter-Glo® Luminescent Cell Viability Assay (Promega, G7573) • 11) Countstar® BioMed automatic cell counter • 12) Trypan blue solution, 0.4% (Gibco, Cat. No. 15250061) • 13) 37° C. constant-temperature incubator (Thermo, FORMA STERI-CYCLE i160 LK) • 14) Biosafety cabinet (Thermo, 1379)
• 1) The formula of the complete medium for ZR-75-1 was as follows: 500 mL RPMI-1640+10% FBS+1% penicillin-streptomycin. • 2) Thirty minutes before cell plating, the complete medium, serum, trypsin, and DPBS for use in ZR-75-1 cell culture were pre-warmed in a water bath at 37° C. • 3) The ZR-75-1 cells were taken out of the incubator, and the medium was removed by pipetting. The cells were rinsed once with 5 mL of DPBS, and then the DPBS was discarded. • 4) The cells in the T75 culture flask were digested with 1-3 mL of (0.25%) trypsin-EDTA. After the trypsin was added, the culture flask was incubated in an incubator at 37° C. for 2-5 min, and dispersion was confirmed by microscopic examination. Tapping or agitating the culture flask was avoided to prevent disturbing the cells, which might cause cell clumping. • 5) 9 mL of the complete medium was added to terminate the digestion, thus forming a cell suspension, which was then mixed well by pipetting. • 6) Cell suspension counting: 20 μL of the cell suspension was pipetted and diluted with 20 µL of the 0.4% trypan blue solution (Gibco, Cat. No. 15250061). The total cell count and the percentage of cell viability were determined using the Countstar® BioMed automatic cell counter. Only cells with a cell viability of no less than 95% were used for the experiment. • 7) The concentration of the cell suspension was adjusted to 2000 cells/well, and the cell suspension was added to a 96-well cell culture plate at 80 μL/well. Treatment of Cells with Compounds • 1) Twenty-four hours after cell plating, the cell plate was taken out. • 2) Each compound was prepared with a complete medium. The stock solution was a 10 mM solution in DMSO, which was first diluted with the medium to 100 μM, then diluted to 1 μM, and finally subjected to a 5-fold serial dilution across a total of 9 concentration gradients. • 3) 20 μL of the compound diluted with the medium was added to each well of the cell culture plate, which already contained 80 μL of the medium. The final concentration started at 200 nM, followed by a 5-fold serial dilution across a total of 9 concentration gradients. Two replicate wells were set for each compound, and each plate could be used to test 3 compounds, with the DMSO content controlled within 0.5%. • 4) The culture medium was replenished once every three days with a complete medium containing the same concentration of the test compound, with 20 μL/well added each time.
After 10 days of incubation with the compound, the cell culture plate was taken out, and the CellTiter-Glo® reagent was added at 50 μL/well. […]

SMILES | IC50 [nM]
COc1cc(Cn2cccn2)cc2onc(NS(=O)(=O)c3ccccc3OC3CCC3)c12 [Compound 1, N-(6-((1H-Pyrazol-1-yl)methyl)-4-methoxybenzo[d]isoxazol-3-yl)-2-cyclobutoxybenzenesulfonamide] | 0.5 to 2
COc1cc(Cn2cccn2)cc2onc(NS(=O)(=O)c3ccccc3OC3CC(F)(F)C3)c12 [Compound 2, N-(6-((1H-Pyrazol-1-yl)methyl)-4-methoxybenzo[d]isoxazol-3-yl)-2-(3,3-difluorocyclobutoxy)benzenesulfonamide] | 2 to 10
COc1cc(Cn2cccn2)cc2onc(NS(=O)(=O)c3cc(C(C)(C)C)ccc3OC3CCC3)c12 [Compound 3, N-(6-((1H-Pyrazol-1-yl)methyl)-4-methoxybenzo[d]isoxazol-3-yl)-5-(tert-butyl)-2-cyclobutoxybenzenesulfonamide] | 2 to 10
COc1cc(Cn2cccn2)cc2onc(NS(=O)(=O)c3cccc4c3OCO4)c12 [Compound 4, N-(6-((1H-Pyrazol-1-yl)methyl)-4-methoxybenzo[d]isoxazol-3-yl)benzo[d][1,3]dioxole-4-sulfonamide] | 10 to 50
COc1cc(Cn2cccn2)cc2onc(NS(=O)(=O)c3cccc4c3OC(F)(F)O4)c12 [Compound 5, N-(6-((1H-Pyrazol-1-yl)methyl)-4-methoxybenzo[d]isoxazol-3-yl)-2,2-difluorobenzo[d][1,3]dioxole-4-sulfonamide] | ≥ 50
CC(C)Oc1cc(Cn2cccn2)cc2onc(NS(=O)(=O)c3cc(C(C)(C)C)ccc3OC3CCC3)c12 [Compound 6, N-(6-((1H-Pyrazol-1-yl)methyl)-4-isopropoxybenzo[d]isoxazol-3-yl)-5-(tert-butyl)-2-cyclobutoxybenzenesulfonamide] | 2 to 10
COc1c(F)c(Cn2cccn2)cc2onc(NS(=O)(=O)c3cc(C(C)(C)C)ccc3OC3CCC3)c12 [Compound 7, N-(6-((1H-Pyrazol-1-yl)methyl)-5-fluoro-4-methoxybenzo[d]isoxazol-3-yl)-5-(tert-butyl)-2-cyclobutoxybenzenesulfonamide] | 0.5 to 2
CC(C)(C)c1ccc(OC2CCC2)c(S(=O)(=O)Nc2noc3cc(Cn4cccn4)c(C4CC4)cc23)c1 [Compound 8, N-(6-((1H-Pyrazol-1-yl)methyl)-5-cyclopropylbenzo[d]isoxazol-3-yl)-5-(tert-butyl)-2-cyclobutoxybenzenesulfonamide] | 10 to 50
COc1ccccc1S(=O)(=O)Nc1nsc2cc(Cn3cccn3)cc(OC)c12 [Compound 9, N-(6-((1H-Pyrazol-1-yl)methyl)-4-methoxybenzo[d]isothiazol-3-yl)-2-methoxybenzenesulfonamide] | ≥ 50
COc1cc(Cn2cccn2)cc2onc(NS(=O)(=O)c3cc(C(C)C)ccc3OCC(F)F)c12 [Compound 10, N-(6-((1H-Pyrazol-1-yl)methyl)-4-methoxybenzo[d]isoxazol-3-yl)-2-(2,2-difluoroethoxy)-5-isopropylbenzenesulfonamide] | 2 to 10
COc1ccccc1S(=O)(=O)Nc1noc2cc(Cn3cccn3)cc(OC(F)F)c12 [Compound 11, N-(6-((1H-Pyrazol-1-yl)methyl)-4-(difluoromethoxy)benzo[d]isoxazol-3-yl)-2-methoxybenzenesulfonamide] | 2 to 10
COc1cccc(OC)c1S(=O)(=O)Nc1noc2cc(Cn3cccn3)cc(OC(F)F)c12 [Compound 12, N-(6-((1H-Pyrazol-1-yl)methyl)-4-(difluoromethoxy)benzo[d]isoxazol-3-yl)-2,6-dimethoxybenzenesulfonamide] | 2 to 10
COc1ccc(C(C)(C)O)cc1S(=O)(=O)Nc1noc2cc(Cn3cccn3)cc(OC)c12 [Compound 13, N-(6-((1H-Pyrazol-1-yl)methyl)-4-methoxybenzo[d]isoxazol-3-yl)-5-(2-hydroxypropan-2-yl)-2-methoxybenzenesulfonamide] | 0.5 to 2
COc1ccc2c(c1S(=O)(=O)Nc1noc3cc(Cn4cccn4)cc(OC)c13)OCCO2 [Compound 14, N-(6-((1H-Pyrazol-1-yl)methyl)-4-methoxybenzo[d]isoxazol-3-yl)-6-methoxy-2,3-dihydrobenzo[b][1,4]dioxine-5-sulfonamide] | 0.5 to 2
COc1ccc2c(c1S(=O)(=O)Nc1noc3cc(Cn4cccn4)cc(OC)c13)OCCC21CCC1 [Compound 15, N-(6-((1H-Pyrazol-1-yl)methyl)-4-methoxybenzo[d]isoxazol-3-yl)-7-methoxyspiro[chromane-4,1′-cyclobutane]-8-sulfonamide] | < 0.5
COc1ccc2c(c1S(=O)(=O)Nc1noc3cc(Cn4cccn4)cc(OC)c13)OCCC2(C)C [Compound 16, N-(6-((1H-Pyrazol-1-yl)methyl)-4-methoxybenzo[d]isoxazol-3-yl)-7-methoxy-4,4-dimethylchromane-8-sulfonamide] | < 0.5
COc1ccc2c(c1S(=O)(=O)Nc1noc3cc(Cn4cccn4)cc(OC)c13)OCO2 [Compound 17, N-(6-((1H-Pyrazol-1-yl)methyl)-4-methoxybenzo[d]isoxazol-3-yl)-5-methoxybenzo[d][1,3]dioxole-4-sulfonamide] | 0.5 to 2
COc1ccc2c(c1S(=O)(=O)Nc1noc3cc(Cn4cccn4)cc(OC)c13)OC(C)(C)O2 [Compound 18, N-(6-((1H-Pyrazol-1-yl)methyl)-4-methoxybenzo[d]isoxazol-3-yl)-5-methoxy-2,2-dimethylbenzo[d][1,3]dioxole-4-sulfonamide] | 2 to 10
COc1ccc2c(c1S(=O)(=O)Nc1noc3cc(Cn4cccn4)cc(OC)c13)OC(C)(C)C2 [Compound 19, N-(6-((1H-Pyrazol-1-yl)methyl)-4-methoxybenzo[d]isoxazol-3-yl)-6-methoxy-2,2-dimethyl-2,3-dihydrobenzofuran-7-sulfonamide] | 2 to 10
COc1ccc2c(c1S(=O)(=O)Nc1noc3cc(Cn4cccn4)cc(OC)c13)OCC2(C)C [Compound 20, N-(6-((1H-Pyrazol-1-yl)methyl)-4-methoxybenzo[d]isoxazol-3-yl)-6-methoxy-3,3-dimethyl-2,3-dihydrobenzofuran-7-sulfonamide] | 0.5 to 2
COc1cccc(OC2CCC2)c1S(=O)(=O)Nc1noc2cc(Cn3cccn3)cc(OC)c12 [Compound 21, N-(6-((1H-Pyrazol-1-yl)methyl)-4-methoxybenzo[d]isoxazol-3-yl)-2-cyclobutoxy-6-methoxybenzenesulfonamide] | 2 to 10
CCc1ccc(OC2CCC2)c(S(=O)(=O)Nc2noc3cc(Cn4cccn4)cc(OC)c23)c1 [Compound 22, N-(6-((1H-Pyrazol-1-yl)methyl)-4-methoxybenzo[d]isoxazol-3-yl)-2-cyclobutoxy-5-ethylbenzenesulfonamide] | 2 to 10
COc1cc(Cn2cccn2)cc2onc(NS(=O)(=O)c3cc(C(C)C)ccc3OC3CCC3)c12 [Compound 23, N-(6-((1H-Pyrazol-1-yl)methyl)-4-methoxybenzo[d]isoxazol-3-yl)-2-cyclobutoxy-5-isopropylbenzenesulfonamide] | 2 to 10
COc1cccc(OC)c1S(=O)(=O)Nc1nsc2cc(Cn3cccn3)cc(OC)c12 [Compound 24, N-(6-((1H-Pyrazol-1-yl)methyl)-4-methoxybenzo[d]isothiazol-3-yl)-2,6-dimethoxybenzenesulfonamide] | 10 to 50
COc1cccc(OC)c1S(=O)(=O)Nc1nsc2cc(Cn3cccn3)ccc12 [Compound 25, N-(6-((1H-Pyrazol-1-yl)methyl)benzo[d]isothiazol-3-yl)-2,6-dimethoxybenzenesulfonamide] | ≥ 50
